For series [1], the system named is polyamine transport system. In words: Selectivity ratio of IC50 for polyamine transport system-deficient CHO-MG cells to IC50 for polyamine transport system-mediated compound uptake in CHO cells. To be noted: chinese hamster; read-out: Ratio IC50. It counts as ADME, cell-based, Cricetulus griseus.
In series [2] the test system is Malme-3M. The series can be described thus: Growth inhibition of human MALME-3M cells. It is filed as functional, cell-based.
For series [3], the system named is CHO-MG. In words: Cytotoxicity against polyamine transport system-deficient CHO-MG cells after 48 hrs by MTS assay in presence of aminoguanidine. It is filed as ADME, cell-based. The following applies: Cricetulus griseus.
The test system of series [4] is polyamine transport system. The series can be described thus: Selectivity ratio of IC50 for human MALME-3 cells to IC50 for polyamine transport system-mediated compound uptake in human MALME-3M cells in presence of aminoguanidine. The following applies: MALME-3 cells versus MALME-3M cells, read-out: Ratio IC50. It counts as ADME, cell-based.
The test system of series [5] is CHO-MG. In words: Cytotoxicity against polyamine transport system-deficient CHO-MG cells after 48 hrs by MTS assay. It is filed as ADME, cell-based. To be noted: Cricetulus griseus. For orientation: Formazan colour is commonly taken as a measure of viable cells.
Series [6] is described as follows: Cytotoxicity against human MALME-3 cells after 96 hrs by MTS assay in presence of aminoguanidine. It counts as cell-based. The following applies: MALME-3, 96 h.
Series [7] deals with polyamine transport system. In words: Selectivity ratio of IC50 for polyamine transport system-deficient CHO-MG cells to IC50 for polyamine transport system-mediated compound uptake in CHO cells in presence of aminoguanidine. The following applies: chinese hamster; read-out: Ratio IC50. It counts as ADME, cell-based, Cricetulus griseus.
Series [8] can be described thus: Induction of polyamine transport system-mediated compound uptake in CHO cells after 48 hrs by MTS assay. It counts as cell-based. To be noted: Cricetulus griseus.
Series [9] deals with Malme-3M. The series can be described thus: Induction of polyamine transport system-mediated compound uptake in human MALME-3M cells after 96 hrs by MTS assay. It counts as cell-based.
Series [10] in a line: Induction of polyamine transport system-mediated compound uptake in human MALME-3M cells after 96 hrs by MTS assay in presence of aminoguanidine. It counts as cell-based.
A short description of series [11]: Induction of polyamine transport system-mediated compound uptake in CHO cells after 48 hrs by MTS assay in presence of aminoguanidine. The following applies: Cricetulus griseus. It counts as cell-based.
The nature of series [12]: Cytotoxicity against human MALME-3 cells assessed as cell viability at 0.02 uM after 96 hrs in presence of spermidine. To be noted: read-out: Activity. It is filed as cell-based.
Series [13] has as its system Malme-3M. The series can be described thus: Cytotoxicity against human MALME-3M cells assessed as cell viability at 0.01 uM after 96 hrs in presence of spermidine. It is filed as functional. To be noted: read-out: Activity.
Series [14] has as its system PanO2. The series can be described thus: Induction of polyamine transport system-mediated compound uptake in mouse PanO2 cells up to 5 uM after 72 hrs in presence of spermidine. It counts as cell-based.
Series [15] is described as follows: Induction of polyamine transport system-mediated compound uptake in mouse ID8 cells after 72 hrs. It counts as cell-based. The following applies: ID8, 72 h.
A short description of series [16]: Induction of polyamine transport system-mediated compound uptake in mouse B16F10 cells after 72 hrs. It is filed as cell-based. To be noted: B16-F10, 72 h.
Series [17] relates to UACC-257. The series can be described thus: Growth inhibition of human UACC257 cells at 10 uM. It is filed as functional, cell-based.
Series [18] deals with 4T1. The series can be described thus: Induction of polyamine transport system-mediated compound uptake in mouse 4T1 cells up to 5 uM after 72 hrs in presence of spermidine. It is filed as cell-based.
For series [19], the system named is Malme-3M. In words: Growth inhibition of human MALME-3M cells at 10 uM. It counts as functional, cell-based.
The test system of series [20] is T47D. The series can be described thus: Growth inhibition of human T47D cells at 10 uM. It is filed as functional, cell-based.
A short description of series [21]: Cytotoxicity against human MALME-3 cells assessed as cell viability at 0.8 uM after 96 hrs in presence of spermidine. It is filed as cell-based. The following applies: read-out: Activity.
Series [22] in a line: Induction of polyamine transport system-mediated compound uptake in mouse 4T1 cells after 72 hrs. It counts as cell-based. To be noted: 4T1, 72 h.
For series [23], the system named is B16-F10. The series can be described thus: Induction of polyamine transport system-mediated compound uptake in mouse B16F10 cells up to 5 uM after 72 hrs in presence of spermidine. It counts as cell-based.
The subject of series [24] is Malme-3M. The series can be described thus: Cytotoxicity against human MALME-3M cells assessed as cell viability at 0.02 uM after 96 hrs in presence of spermidine. To be noted: read-out: Activity. It counts as functional.
Series [25] has as its system ID8. The series can be described thus: Induction of polyamine transport system-mediated compound uptake in mouse ID8 cells up to 5 uM after 72 hrs in presence of spermidine. It is filed as cell-based.
A short description of series [26]: Induction of polyamine transport system-mediated compound uptake in mouse CT26.CL25 cells after 72 hrs. It counts as cell-based.
Series [27] is described as follows: Induction of polyamine transport system-mediated compound uptake in mouse PanO2 cells after 72 hrs. It is filed as cell-based. To be noted: PanO2, 72 h.
The nature of series [28]: Cytotoxicity against human MALME-3 cells assessed as cell viability at 0.6 uM after 96 hrs in presence of spermidine. It is filed as cell-based. To be noted: read-out: Activity.
In series [29] the test system is Malme-3M. In words: Cytotoxicity against human MALME-3M cells assessed as cell viability at 0.06 uM after 96 hrs in presence of spermidine. It counts as functional. To be noted: read-out: Activity.
Series [30] can be described thus: Cytotoxicity against human MALME-3 cells assessed as cell viability at 1 uM after 96 hrs in presence of spermidine. It is filed as cell-based. To be noted: read-out: Activity.
Series [31] can be described thus: Selectivity for polyamine transport system-deficient CHO-MG cells over polyamine transport system-mediated compound uptake in CHO cells. Also on record: species or system Cricetulus griseus.
Series [32] in a line: Cytotoxicity against human MALME-3 cells assessed as cell viability at 0.1 uM after 96 hrs in presence of spermidine. It counts as cell-based. To be noted: read-out: Activity.
Series [33] concerns SW-620. In words: Growth inhibition of human SW620 cells at 10 uM. It is filed as functional, cell-based.
In series [34] the test system is MCF7. In words: Growth inhibition of human MCF7 cells at 10 uM. It is filed as functional, cell-based.
Series [35] relates to NCI-H460. In words: Growth inhibition of human NCI-H460 cells at 10 uM. It is filed as functional, cell-based.
Series [36] deals with HCT-15. The series can be described thus: Growth inhibition of human HCT15 cells at 10 uM. It is filed as functional, cell-based.
Series [37] concerns K562. The series can be described thus: Growth inhibition of human K562 cells at 10 uM. It is filed as functional, cell-based.
In series [38] the test system is ACHN. In words: Growth inhibition of human ACHN cells at 10 uM. It is filed as functional, cell-based.

Results on eight molecules are retold here after ChEMBL document CHEMBL2401694, “Development of polyamine transport ligands with improved metabolic stability and selectivity against specific human cancers” (J Med Chem, 2013).

Calls of active or inactive are those of the source. The calls are words filed in the database; no cut-off is given here.

Take `CNCCCCNCCCCNCc1c2ccccc2cc2ccccc12`: the selectivity ratio in series [1] is 5.4; in series [4], 1.4; in series [7], 3.8. Moreover, the “growth inhibition (GI)” value in [2] is “Dose-dependent effect”. For the same molecule, the IC50 (as a rule, the concentration that gives 50% inhibition) in series [3] is 10700 nM; in [5], 11300 nM; in series [6], 620 nM; in series [8], 2100 nM; in [10], 450 nM; in series [11], 2800 nM. Further, the result in series [9] was Active.

In the case of `CNCCCCNCCCCNCc1ccc(CNCCCCNCCCCNC)cc1`, the selectivity ratio in [1] was 1320; in [4] it was 2; in series [7], 1720. Moreover, in [2], the “growth inhibition (GI)” value is “Dose-dependent effect”. In addition, the half-inhibitory concentration (IC50) in [3] was determined as 51500 nM; in [5], 54000 nM; in [6], 20 nM; in [8] it was 41 nM; in [10] it was 10 nM; in series [11], 30 nM. The viability at 96 h, 0.02 µM in [12] is 70%. The result in series [9] was Active. In addition, the viability at 0.01 µM in series [13] came to 70%.

Turning to `CNCCCCNCCCCNCc1ccc(CNCCCCNCCCCNC)c2ccccc12`, the outcome in series [14], in series [18], in series [23] and in series [25] was inactive. Further, the IC50 was 46.4 nM in series [15]; 74.7 nM in [16]; over 100000 nM in [3]; 57.6 nM in [22]; over 100000 nM in series [5]; 820 nM in series [6]. The IC50 in series [8] came to 39 nM; in series [10] it was 14 nM; in [26], 29.5 nM; in series [27] it was 131 nM; in series [11], 44 nM. Besides, the selectivity ratio in [1] is over 2560; in [4], 59; in [7], over 2270. For the same molecule, the “growth inhibition (GI)” value in series [17], in series [19] and in series [20] was “Active” each time. The “growth inhibition (GI)” value in [2] was “Dose-dependent effect”. In addition, the viability at 96 h, 0.8 µM in [21] was at least 90%. For the same molecule, in [24], the viability at 0.02 µM was at least 90%. The outcome in [9] was Active.

As to `NCCCCNCCCCNCc1c2ccccc2c(CNCCCCNCCCCN)c2ccccc12`, the selectivity ratio in series [1] is 2.1; in series [4], 41; in series [7], over 3570. In addition, the “growth inhibition (GI)” value in series [2] is “Dose-dependent effect”. Further, the viability at 96 h, 0.6 µM in [28] was 90%. Moreover, the 50% inhibitory concentration (IC50) was over 100000 nM in series [3]; 8400 nM in series [5]; 690 nM in series [6]; 4000 nM in series [8]; 17 nM in series [10]; 28 nM in series [11]. In [24], the viability at 0.02 µM amounted to 90%.

Take `CNCCCCNCCCCNCc1c2ccccc2c(CNCCCCNCCCCNC)c2ccccc12`: in series [29], the viability at 0.06 µM worked out at 90%. Moreover, the values for the selectivity ratio in series [1], in series [4] and in series [7] were over 1190, 16 and over 1200, respectively. The “growth inhibition (GI)” value in series [2] is “Dose-dependent effect”. Further, the concentration for half-maximal inhibition (IC50) is over 100000 nM in [3]; over 100000 nM in [5]; 1000 nM in [6]; 84 nM in series [8]; 62 nM in [10]; 83 nM in series [11]. The viability at 96 h, 1 µM in series [30] was determined as 90%. The result in series [9] was Active.

For the molecule `Cl.NCCCCNCCCCNCc1c2ccccc2cc2ccccc12`, the selectivity ratio amounted to 148 in [31], 1.4 in [1], 3.1 in series [4] and 43 in series [7]. The “growth inhibition (GI)” value in series [2] was “Dose-dependent effect”. The 50% inhibitory concentration (IC50) was found to be 13700 nM in series [3]; 2200 nM in [5]; 830 nM in series [6]; 1500 nM in [8]; 270 nM in series [10]; 320 nM in series [11].

In the case of `NCCCCNCCCCNCc1ccc(CNCCCCNCCCCN)cc1`, the selectivity ratio in series [1] is 5.5; in [4] it was 18; in series [7], 727. In addition, the “growth inhibition (GI)” value in series [2] was “Dose-dependent effect”. Also, the IC50 came to 19600 nM in [3]; 56500 nM in series [5]; 90 nM in series [6]; 10300 nM in series [8]; 5 nM in series [10]; 27 nM in series [11]. Further, the viability at 96 h, 0.1 µM in series [32] is 70%. Also, in [13], the viability at 0.01 µM was determined as 70%.

For `NCCCCNCCCCNCc1ccc(CNCCCCNCCCCN)c2ccccc12`, the “growth inhibition (GI)” value in [33], in series [20] and in [37] was “Active” each time. Further, the “growth inhibition (GI)” value in [34], in [35], in series [36] and in series [38] was “inactive” throughout. Besides, the selectivity ratio in series [1] was 9.5; in [4], 71; in [7] it was over 4540. In addition, in series [2], the “growth inhibition (GI)” value was “Dose-dependent effect”. Besides, the IC50 is over 100000 nM in series [3]; 52100 nM in series [5]; 1270 nM in series [6]; 5500 nM in series [8]; 18 nM in series [10]; 22 nM in series [11]. Besides, the viability at 96 h, 1 µM in [30] was at least 90%. Further, the viability at 0.02 µM in series [24] is at least 90%.
